Assay results published in ChEMBL document CHEMBL1201862, “PubChem BioAssay data set” (2004).
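Dose response: 5 concentrations. Exposure: 48 h. Format: 96-well plates. Endpoint: linear interpolation; highest concentration if not reached. Here, GI50 denotes the concentration required for 50% inhibition of growth.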 Active and inactive are the calls of the source. Cut-off read from the data, not from the text of the source: active = GI50 up to about 1.1 µM and inactive = higher.

What was measured:
Experiment in all cases: DTP human tumour cell line panel, 48 h
NCI-H522 = system: NCI-H522
MOLT-4 = system: MOLT-4
RPMI-8226 = system: RPMI-8226
EKVX = system: EKVX
K562 = system: K562
Hs-578T = system: Hs-578T
M14 = system: M14
SF-539 = system: SF-539
HOP-92 = system: HOP-92
HCT-116 = system: HCT-116
SF-295 = system: SF-295
OVCAR-3 = system: OVCAR-3
786-0 = system: 786-0
HCC 2998 = system: HCC 2998
TK-10 = system: TK-10
OVCAR-5 = system: OVCAR-5
ACHN = system: ACHN
SW-620 = system: SW-620
U-251 = system: U-251
Malme-3M = system: Malme-3M

| Structure (SMILES) | GI50 (NCI-H522) | GI50 (MOLT-4) | GI50 (RPMI-8226) | GI50 (EKVX) | GI50 (K562) | GI50 (Hs-578T) | GI50 (M14) | GI50 (SF-539) | GI50 (HOP-92) | GI50 (HCT-116) | GI50 (SF-295) | GI50 (OVCAR-3) | GI50 (786-0) | GI50 (HCC 2998) | GI50 (TK-10) | GI50 (OVCAR-5) | GI50 (ACHN) | GI50 (SW-620) | GI50 (U-251) | GI50 (Malme-3M) |
| --- | --- | --- | --- | --- | --- | --- | --- | --- | --- | --- | --- | --- | --- | --- | --- | --- | --- | --- | --- | --- |
| C=CCC1(C)CCCN(Cc2ccccc2)C1=O (configuration not stated) | > 10 µM (inactive) | > 10 µM (inactive) | > 10 µM (inactive) | > 10 µM (inactive) | > 10 µM (inactive) | > 10 µM (inactive) | > 10 µM (inactive) | > 10 µM (inactive) | > 10 µM (inactive) | > 10 µM (inactive) | > 10 µM (inactive) | > 10 µM (inactive) | > 10 µM (inactive) | > 10 µM (inactive) | > 10 µM (inactive) | > 10 µM (inactive) | > 10 µM (inactive) | > 10 µM (inactive) | > 10 µM (inactive) | 0.0161 µM (active) |
| CC1CC[C@@]2(OC1)OC1C[C@H]3[C@@H]4CC[C@H]5CC(OC6OC(CO)C(OC7OC(CO)C(O)C(O)C7OC7OC(CO)C(O)C(O)C7O)C(O)C6O)CCC5(C)[C@H]4CCC3(C)C1[C@@H]2C (some centres not stated) | 1.63 µM (inactive) | 1.29 µM (inactive) | 1.88 µM (inactive) | 0.977 µM (active) | 2.21 µM (inactive) | 1.99 µM (inactive) | 3.34 µM (inactive) | 1.22 µM (inactive) | 5.2 µM (inactive) | 1.94 µM (inactive) | 4.26 µM (inactive) | 1.8 µM (inactive) | 1.56 µM (inactive) | 1.04 µM (active) | 1.61 µM (inactive) | 2.25 µM (inactive) | 1.54 µM (inactive) | 0.933 µM (active) | 1.1 µM (active) | 4.04 µM (inactive) |
| COC1/C=C/C(C)C(C(C)C(OC)C(C)CCC(=O)C(C)C(C/C=C/N(C)C=O)OC)OC(=O)C=CC2OC2(C)CC(OC)C(OC)C2=CC(=O)O[C@@H](C(C)C(OC)CC(OC)/C=C/C(C)C(O)C1)[C@H]2O (some centres not stated) | 0.00369 µM (active) | 0.00527 µM (active) | 0.00841 µM (active) | 0.00562 µM (active) | 0.00277 µM (active) | 0.00448 µM (active) | 0.00333 µM (active) | 0.0037 µM (active) | 0.0056 µM (active) | 0.000528 µM (active) | 0.00775 µM (active) | 0.0108 µM (active) | 0.00451 µM (active) | 0.00569 µM (active) | 0.0119 µM (active) | 0.0105 µM (active) | 0.00313 µM (active) | 0.00379 µM (active) | 0.0146 µM (active) | 0.00673 µM (active) |
| O=C(CSCC(=O)N/N=C/c1cccs1)N/N=C/c1cccs1 | 38.6 µM (inactive) | 64.7 µM (inactive) | 42.4 µM (inactive) | 61.5 µM (inactive) | > 100 µM (inactive) | 61.1 µM (inactive) | > 100 µM (inactive) | 52.8 µM (inactive) | 27.2 µM (inactive) | > 100 µM (inactive) | 52.7 µM (inactive) | 38.6 µM (inactive) | 47.6 µM (inactive) | > 100 µM (inactive) | > 100 µM (inactive) | > 100 µM (inactive) | 64.4 µM (inactive) | > 100 µM (inactive) | > 100 µM (inactive) | 61 µM (inactive) |
| COc1ccccc1NCC(=O)Nn1c(C)nc2ccc(S(=O)(=O)Nc3ccccc3OC)cc2c1=O | 35.6 µM (inactive) | > 100 µM (inactive) | > 100 µM (inactive) | > 100 µM (inactive) | 80.4 µM (inactive) | > 100 µM (inactive) | > 100 µM (inactive) | > 100 µM (inactive) | > 100 µM (inactive) | > 100 µM (inactive) | 36.1 µM (inactive) | 83.4 µM (inactive) | > 100 µM (inactive) | > 100 µM (inactive) | > 100 µM (inactive) | > 100 µM (inactive) | > 100 µM (inactive) | 65.2 µM (inactive) | > 100 µM (inactive) | 97.7 µM (inactive) |
| O=Cc1ccc(-c2ccc(-c3ccc(CO)s3)o2)s1 | 15.7 µM (inactive) | 2.92 µM (inactive) | 1.54 µM (inactive) | 23.5 µM (inactive) | 1.43 µM (inactive) | 16 µM (inactive) | 20.4 µM (inactive) | 17.9 µM (inactive) | 17.5 µM (inactive) | 0.841 µM (active) | 14.5 µM (inactive) | 0.372 µM (active) | 2.47 µM (inactive) | 3.22 µM (inactive) | 0.237 µM (active) | – | 28.7 µM (inactive) | 2.22 µM (inactive) | 1.91 µM (inactive) | 18.2 µM (inactive) |
| COC(=O)c1ccccc1/C=C1\Cc2c(C)cc(C)cc2C1=O | > 100 µM (inactive) | > 100 µM (inactive) | > 100 µM (inactive) | > 100 µM (inactive) | > 100 µM (inactive) | > 100 µM (inactive) | > 100 µM (inactive) | > 100 µM (inactive) | > 100 µM (inactive) | > 100 µM (inactive) | > 100 µM (inactive) | > 100 µM (inactive) | > 100 µM (inactive) | > 100 µM (inactive) | > 100 µM (inactive) | – | > 100 µM (inactive) | > 100 µM (inactive) | > 100 µM (inactive) | > 100 µM (inactive) |
| Cc1c2ccccc2cc2nc3ccccc3n12 | > 10 µM (inactive) | > 10 µM (inactive) | > 10 µM (inactive) | > 10 µM (inactive) | > 10 µM (inactive) | > 10 µM (inactive) | > 10 µM (inactive) | > 10 µM (inactive) | > 10 µM (inactive) | > 10 µM (inactive) | > 10 µM (inactive) | > 10 µM (inactive) | > 10 µM (inactive) | > 10 µM (inactive) | 0.00668 µM (active) | > 10 µM (inactive) | > 10 µM (inactive) | > 10 µM (inactive) | > 10 µM (inactive) | > 10 µM (inactive) |
| COc1cc(/C=N/n2c(-c3ccccc3)n[nH]c2=O)cc(OC)c1OC | 0.675 µM (active) | 0.733 µM (active) | 1.38 µM (inactive) | 11.4 µM (inactive) | 0.598 µM (active) | 3.56 µM (inactive) | 6.08 µM (inactive) | 1.96 µM (inactive) | 13.8 µM (inactive) | 0.641 µM (active) | 0.745 µM (active) | 4.63 µM (inactive) | 3.5 µM (inactive) | > 100 µM (inactive) | 4.17 µM (inactive) | 22.4 µM (inactive) | 4.02 µM (inactive) | – | 3.93 µM (inactive) | 1.46 µM (inactive) |
| COc1ccc2c(c1)CCC(CN1CCN(CCOC(c3ccc(F)cc3)c3ccc(F)cc3)CC1)=C2 | 13.9 µM (inactive) | 10 µM (inactive) | 4.52 µM (inactive) | 6.07 µM (inactive) | 4.47 µM (inactive) | 19.3 µM (inactive) | 9.31 µM (inactive) | 13 µM (inactive) | 16.1 µM (inactive) | 7.26 µM (inactive) | 22.2 µM (inactive) | 16.9 µM (inactive) | 11.9 µM (inactive) | 4.89 µM (inactive) | 14.3 µM (inactive) | 23.1 µM (inactive) | 13.3 µM (inactive) | 22.9 µM (inactive) | 14.8 µM (inactive) | 14.4 µM (inactive) |
| O=C(NCCCCCCCCCCCCNC(=O)Nc1cccc2ccccc12)Nc1cccc2ccccc12 | 13.7 µM (inactive) | 20.3 µM (inactive) | 19.5 µM (inactive) | 19.1 µM (inactive) | 20.2 µM (inactive) | 14.7 µM (inactive) | 20.1 µM (inactive) | 13.2 µM (inactive) | 12.1 µM (inactive) | 17.5 µM (inactive) | 14.1 µM (inactive) | 16.7 µM (inactive) | 13.5 µM (inactive) | 14.2 µM (inactive) | 17.7 µM (inactive) | 25.2 µM (inactive) | 14 µM (inactive) | 17.4 µM (inactive) | 14.3 µM (inactive) | 15.3 µM (inactive) |
| O=C1Nc2c(Cl)cc(Cl)cc2/C1=N/Nc1ccccc1[N+](=O)[O-] | 35.2 µM (inactive) | 46.1 µM (inactive) | > 100 µM (inactive) | 5.7 µM (inactive) | 38.6 µM (inactive) | 8.32 µM (inactive) | 39.3 µM (inactive) | 13 µM (inactive) | 12 µM (inactive) | 38.2 µM (inactive) | 11.7 µM (inactive) | 50.7 µM (inactive) | 5.75 µM (inactive) | > 100 µM (inactive) | 22.6 µM (inactive) | > 100 µM (inactive) | 11.6 µM (inactive) | > 100 µM (inactive) | 6.85 µM (inactive) | 29.2 µM (inactive) |
| CC1(c2nc3ccccc3[nH]2)CCC(C(N)=O)C(C)(C)O1 (configuration not stated) | > 100 µM (inactive) | > 100 µM (inactive) | > 100 µM (inactive) | > 100 µM (inactive) | > 100 µM (inactive) | > 100 µM (inactive) | > 100 µM (inactive) | > 100 µM (inactive) | > 100 µM (inactive) | > 100 µM (inactive) | > 100 µM (inactive) | > 100 µM (inactive) | > 100 µM (inactive) | > 100 µM (inactive) | > 100 µM (inactive) | > 100 µM (inactive) | > 100 µM (inactive) | > 100 µM (inactive) | > 100 µM (inactive) | > 100 µM (inactive) |
| Cc1cc(O)nc2c3c(ccc12)OC(C)(C)C=C3 | 6.67 µM (inactive) | 5.16 µM (inactive) | 4.47 µM (inactive) | 14.9 µM (inactive) | 4.22 µM (inactive) | 3.52 µM (inactive) | 5.53 µM (inactive) | 3.27 µM (inactive) | > 100 µM (inactive) | 4.45 µM (inactive) | 10.3 µM (inactive) | 4.28 µM (inactive) | 6.7 µM (inactive) | 9.55 µM (inactive) | > 100 µM (inactive) | 9.62 µM (inactive) | > 31.6 µM (inactive) | 3.61 µM (inactive) | 3.11 µM (inactive) | 13.2 µM (inactive) |
